In patent publication US20250264483A1, “IDENTIFICATION OF PROTHROMBOTIC CONDITIONS” (Sydney Local Health District, priority 2020, published 2025):

Key:
healthy donor platelets [1] = assay: Procoagulant platelet flow cytometry assay (GSAO+/CD62P+), healthy donor whole blood with HIT patient plasma; format: cell-based, human; conditions: for difference in proportion of PP with HIT+ plasma compared to HIT−, no plasma or autologous plasma: agonist alone, absence of exogenous heparin (SFLLRN 5 μM, ADP 20 μM, CRP-xL 2 μg/mL; FIG. 2)
Procedure: (§1) The GSAO-based whole blood PP flow cytometry assay established by the inventors^4 was modified to incorporate patient plasma. Citrated whole blood (13 μL) was incubated with and without agonists, unfractionated heparin (Pfizer) and plasma (5 μL) for 10 minutes with final concentrations of 2.5 mM Gly-Pro-Arg-Pro peptide (Sigma-Aldrich) and 2.5 mM calcium chloride. […] In some experiments, blood was pre-treated with 10 μg/mL IV.3 (StemCell Technologies), a monoclonal antibody against FcγRIIa, for 15 minutes prior to the reaction. Samples were incubated with antibodies to CD45, CD41a, CD62P—or isotype control, and GSAO or GSCA, and fixed before analysis on a BD LSRFortessa X-20.
Representative flow cytometry plots from a single donor comparing no plasma with HIT− or HIT+ plasma indicate that addition of HIT+ plasma altered the sub-population profile of the platelets with a marked increase in procoagulant (GSAO+/CD62P+) platelets (FIG. 1A). […] There was also a smaller but statistically significant increase seen with HIT− plasma compared to no plasma (53.63±6.82 vs 42.05±4.24, P<0.05) (FIG. 1B).

healthy donor platelets [2] = assay: Procoagulant platelet flow cytometry assay, healthy donor whole blood with VITT patient plasma; format: cell-based, human; conditions: for proportion of procoagulant platelets: mean±SD
healthy donor platelets [3] = assay: Procoagulant platelet flow cytometry assay, healthy donor whole blood with APS patient plasma; format: cell-based, human; conditions: for Average fold-change in procoagulant platelets: APS patient plasma
Procedure: as §1
Citrated whole blood (13 μL) was incubated with platelet agonists and plasma (5 μL) from healthy donors or patients, for 10 minutes with final concentrations of 2.5 mM Gly-Pro-Arg-Pro peptide (Sigma-Aldrich) and 2.5 mM calcium chloride in a 50 μL reaction. […] The reaction was stopped by further dilution with HBSS, followed by staining with antibodies to CD45 (HI30) (StemCell Technologies), CD41a (HIP8) (BD Biosciences), CD62P (Psel.KO2.3) (eBioscience)—or isotype control (eBioscience), and GSAO or control compound GSCA (4-(N—(S-glutathionylacetyl)amino)benzoic acid). Then, samples were fixed with PAMFix (Platelet Solutions Ltd), centrifuged and resuspended, prior to analysis on a BD LSRFortessa X-20 or BD FACSCanto II cytometer with acquisition of 10000 platelet events. Statistical analyses were performed using GraphPad Prism 9, with statistical significance set at p<0.05.

[4] = cited from earlier work
[5] = HIT+ plasma, agonist, no heparin (FIGS. 3B, D), mean±SEM
[6] = HIT+ plasma, combined sample + agonist + therapeutic concentration heparin / high heparin control sample
[7] = HIT+ plasma, combined sample + agonist + therapeutic concentration heparin / no heparin control sample

Nc1ncnc2c1ncn2[C@@H]1O[C@H](COP(=O)(O)OP(=O)(O)O)[C@@H](O)[C@H]1O [ADP, adenosine diphosphate]
proportion of PP (healthy donor platelets [1]; [5]): 5.66±0.79 | Average fold-change in procoagulant platelets (healthy donor platelets [1]; [6]): 5.5 fold | Average fold-change in procoagulant platelets (healthy donor platelets [1]; [7]): 4.4 fold | difference in proportion of PP with HIT+ plasma compared to HIT−, no plasma or autologous plasma (healthy donor platelets [1]): no difference

SFLLRN
proportion of PP (healthy donor platelets [1]; [5]): 11.19±3.23 | Average fold-change in procoagulant platelets (healthy donor platelets [1]; [6]): 8.5 fold | Average fold-change in procoagulant platelets (healthy donor platelets [1]; [7]): 3.7 fold | difference in proportion of PP with HIT+ plasma compared to HIT−, no plasma or autologous plasma (healthy donor platelets [1]): no difference | PP proportion (healthy donor platelets [2]; SFLLRN 5 μM, ELISA false positive plasma (FIG. 9C)): 3.93±0.78% | proportion of procoagulant platelets (healthy donor platelets [2]; SFLLRN 5 μM, HIT-like VITT (heparin-enhancing VITT) plasma (FIG. 8B)): 23.60±8.768 | proportion of procoagulant platelets (healthy donor platelets [2]; SFLLRN 5 μM, VITT negative plasma (FIG. 8B)): 2.988±0.9564 | proportion of procoagulant platelets (healthy donor platelets [2]; SFLLRN 5 μM, VITT plasma (FIG. 8B)): 16.34±13.74 | PP proportion (healthy donor platelets [2]; SFLLRN 5 μM, VITT-negative plasma (FIG. 9C)): 4.50±2.09% | PP proportion (healthy donor platelets [2]; SFLLRN 5 μM, healthy donor blood, no plasma (FIG. 9C)): 3.86±0.97% | proportion of procoagulant platelets (healthy donor platelets [2]; SFLLRN 5 μM, no plasma (FIG. 8B)): 3.194±0.8185 | PP proportion (healthy donor platelets [2]; SFLLRN 5 μM, plasma from healthy individuals (FIG. 9C)): 3.57±1.36% | change in procoagulant response between patient and autologous plasma (healthy donor platelets [3]; APS plasma vs autologous plasma (FIG. 13A, C)): No significant change

heparin
occurrence of HIT in patients receiving the drug [4]: up to 3% | proportion of PP (healthy donor platelets [1]; HIT+ plasma, ADP 20 μM, high-dose heparin 100 U/mL): 5.16±0.52 | proportion of PP (healthy donor platelets [1]; HIT+ plasma, ADP 20 μM, therapeutic-concentration heparin 0.5 U/mL): 25.22±5.94 | proportion of PP (healthy donor platelets [1]; HIT+ plasma, CRP-xL 2 μg/mL, high-dose heparin 100 U/mL): 11.70±2.63 | proportion of PP (healthy donor platelets [1]; HIT+ plasma, CRP-xL 2 μg/mL, therapeutic-concentration heparin 0.5 U/mL): 26.87±3.58 | proportion of PP (healthy donor platelets [1]; HIT+ plasma, SFLLRN 5 μM, high-dose heparin 100 U/mL): 4.39±0.35 | proportion of PP (healthy donor platelets [1]; HIT+ plasma, SFLLRN 5 μM, therapeutic-concentration heparin 0.5 U/mL): 36.53±7.50 | difference in PP formation in response to SFLLRN, ADP or CRP-xL (healthy donor platelets [1]; HIT− plasma, therapeutic or high heparin concentrations (FIGS. 3A, C, E)): no difference | difference in PP proportion compared to basal levels without exogenous plasma (healthy donor platelets [1]; heparin 0.5 U/mL or 100 U/mL, HIT+ or HIT− plasma, no platelet agonist (FIG. 2)): no differences | PP response (healthy donor platelets [2]; high-dose heparin 100 U/mL, HIT plasma, SFLLRN 5 μM (FIG. 10B)): 3.48±1.02% | PP response (healthy donor platelets [2]; high-dose heparin 100 U/mL, VITT plasma, SFLLRN 5 μM): 3.54±1.41% | PP response (healthy donor platelets [2]; low-dose heparin 0.5 U/mL, VITT plasma, SFLLRN 5 μM (FIG. 10A)): 12.48±12.84%

low-molecular-weight heparin
occurrence of HIT in patients receiving the drug [4]: 0.2%

thrombin: bovine thrombin (Sigma-Aldrich), platelet agonist
proportion of PP (healthy donor platelets [1]; HIT+ plasma, absence of heparin (FIG. 6A, D), thrombin 1 U/mL, CRP-xL 2 μg/mL): 18.86±3.94 | proportion of PP (healthy donor platelets [1]; HIT− plasma, absence of heparin (FIG. 6A, D), thrombin 1 U/mL, CRP-xL 2 μg/mL): 19.55±4.16 | proportion of PP (healthy donor platelets [1]; no plasma, absence of heparin (FIG. 6A, D), thrombin 1 U/mL, CRP-xL 2 μg/mL): 4.16±0.24 | Average fold-change in procoagulant platelets (healthy donor platelets [3]; combined sample / healthy control sample): 5.7 fold | Average fold-change in procoagulant platelets (healthy donor platelets [3]; combined sample / healthy control sample + autologous plasma): 2.1 fold | increase in procoagulant platelet proportions relative to no plasma (healthy donor platelets [3]; autologous plasma, thrombin stimulation (FIG. 13B)): 0.3-5.5% | increase in procoagulant platelet response (healthy donor platelets [3]; plasma from an APS patient collected during plasma exchange, thrombin 1 U/mL, CRP-xL 2 μg/mL (FIG. 14)): 4.5 fold
